According to patent publication US12187709B2 (Genentech, Inc., priority 2021, dated 2025):

How the values were obtained:
[1] = target: Human Cbl-b (residues 40-426) (Homo sapiens (Human), UniProt Q13191); assay: Cbl-b SPR assay; format: binding; settings: for Fold of selectivity: C-cbl SPR Kd vs Cbl-b SPR Kd; for Kd: SPR, 20° C.
Procedure, shortened: (§1)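 Protein captured at 1300-1500 RU; compounds run as 6-point 2-fold series in multi-cycle kinetics (60 s contact, 40 μl/min, 120-1200 s dissociation), fitted 1:1. For slow binders, kd came from chaser-compound occupancy over time, fixed in a single-cycle fit (5 concentrations, top 500 nM).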

c-Cbl (residues 47-435) = c-Cbl (residues 47-435) (Homo sapiens (Human), UniProt P22681); assay: c-Cbl SPR assay; format: binding; settings: 20° C.
Procedure, shortened: as §1

c-Cbl = c-Cbl (Homo sapiens (Human), UniProt P22681); assay: C-Cbl LCK Ub TR-FRET assay (C-cbl Lck HTRF); format: biochemical
Procedure, shortened: (§2)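 Signal is read once the detection mix has stood 20 min at ambient temperature. Curves are anchored by DMSO as maximum and by omission of LCK as minimum.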

Cbl-b = Cbl-b (Homo sapiens (Human), UniProt Q13191); assay: Cbl-b LCK Ub TR-FRET assay (Cbl-b Lck HTRF); format: biochemical; settings: for IC50: Cbl-b LCK Ub TR-FRET
Procedure, shortened: as §2

[2] = ratio C-cbl Lck HTRF IC50 / Cbl-b Lck HTRF IC50

Sequence of c-Cbl (residues 47-435) (P22681 47-435): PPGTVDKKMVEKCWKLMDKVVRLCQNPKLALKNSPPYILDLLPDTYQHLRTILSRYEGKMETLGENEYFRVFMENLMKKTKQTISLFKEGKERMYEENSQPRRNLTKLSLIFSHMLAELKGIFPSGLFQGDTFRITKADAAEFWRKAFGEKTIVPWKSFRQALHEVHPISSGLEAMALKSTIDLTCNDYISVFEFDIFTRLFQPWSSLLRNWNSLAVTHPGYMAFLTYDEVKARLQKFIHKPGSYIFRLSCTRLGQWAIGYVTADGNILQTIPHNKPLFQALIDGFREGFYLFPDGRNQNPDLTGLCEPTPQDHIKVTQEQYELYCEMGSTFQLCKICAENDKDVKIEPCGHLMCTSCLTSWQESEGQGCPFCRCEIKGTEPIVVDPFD
Sequence of c-Cbl (P22681 47-435): as above
Sequence of Human Cbl-b (residues 40-426) (Q13191 40-426): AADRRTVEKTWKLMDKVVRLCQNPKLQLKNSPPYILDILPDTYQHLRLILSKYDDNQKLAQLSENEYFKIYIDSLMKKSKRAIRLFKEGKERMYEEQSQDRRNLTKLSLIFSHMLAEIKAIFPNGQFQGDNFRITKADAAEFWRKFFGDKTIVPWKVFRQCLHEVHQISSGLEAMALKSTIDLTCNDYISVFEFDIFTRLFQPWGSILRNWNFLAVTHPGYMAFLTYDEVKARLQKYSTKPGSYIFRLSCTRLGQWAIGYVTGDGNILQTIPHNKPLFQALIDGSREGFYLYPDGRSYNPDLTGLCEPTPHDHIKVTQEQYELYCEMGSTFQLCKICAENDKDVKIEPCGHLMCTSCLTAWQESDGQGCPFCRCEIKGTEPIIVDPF
Sequence of Cbl-b (Q13191 40-426): as above

Compound | Fold of selectivity [1] [×] | Kd [1] [nM] | Kd (c-Cbl (residues 47-435)) [nM] | IC50 (c-Cbl) [nM] | IC50 (Cbl-b) [nM] | fold-selectivity (Cbl-b over C-cbl) (Cbl-b; [2]) | IC50 (Cbl-b; Example 121) [nM] | (fold-selectivity) Cbl-b and C-Cbl Selectivity (Cbl-b; [2]) [x]
Cn1cnnc1C(F)(c1cccc(N2Cc3c(cc(CNC4(C)CCC4)cc3C(F)(F)F)C2=O)c1)C1(F)COC1 (stereo in doubt) [Compound 403, (S)-2-(3-(fluoro(3-fluorooxetan-3-yl)(4-methyl-4H-1,2,4-triazol-3-yl)methyl)phenyl)-6-(((1-methylcyclobutyl)amino)methyl)-4-(trifluoromethyl)isoindolin-1-one] | 1.0 | 2500 | 2400 | 960 | 750 | 1.3x | – | –
CO[C@H]1C[C@@](c2cc(NC3CCCC3)nc(N3Cc4c(cc(CNC5(C)CCC5)cc4C(F)(F)F)C3=O)c2)(c2nncn2C)C1 [Compound 8, 2-(6-(cyclopentylamino)-4-((1s,3s)-3-methoxy-1-(4-methyl-4H-1,2,4-triazol-3-yl)cyclobutyl)pyridin-2-yl)-6-(((1-methylcyclobutyl)amino)methyl)-4-(trifluoromethyl)isoindolin-1-one] | 6.9 | 3.3 | 23 | 43 | 11 | 3.9x | – | –
CO[C@H]1C[C@](c2cc(NC3CCCC3)nc(N3Cc4c(cc(CNC5(C)CCC5)cc4C(F)(F)F)C3=O)c2)(c2nncn2C)C1 [Compound 9, 2-(6-(cyclopentylamino)-4-((1r,3r)-3-methoxy-1-(4-methyl-4H-1,2,4-triazol-3-yl)cyclobutyl)pyridin-2-yl)-6-(((1-methylcyclobutyl)amino)methyl)-4-(trifluoromethyl)isoindolin-1-one] | 20 | 11 | 220 | 118 | 11 | 8.4x | – | –
Cn1cnnc1C1(c2cccc(N3Cc4c(cc(CNC5(C)CCC5)cc4C(F)(F)F)C3=O)c2)CC(=O)C1 [Compound 19, 2-(3-(1-(4-methyl-4H-1,2,4-triazol-3-yl)-3-oxocyclobutyl)phenyl)-6-(((1-methylcyclobutyl)-amino)methyl)-4-(trifluoromethyl)isoindolin-1-one] | 5.0 | 40 | 200 | 176 | 88 | (2.0x) | – | –
Cn1cnnc1[C@]1(c2cccc(N3Cc4c(cc(CNC5(C)CCC5)cc4C(F)(F)F)C3=O)c2)C[C@@H](O)C1 [Compound 20, 2-(3-((1r,3r)-3-hydroxy-1-(4-methyl-4H-1,2,4-triazol-3-yl)cyclobutyl)phenyl)-6-(((1-methylcyclobutyl)amino)methyl)-4-(trifluoromethyl)isoindolin-1-one] | 4.4 | 80 | 350 | 390 | 170 | (2.3x) | – | –
Cn1cnnc1[C@]1(c2cccc(N3Cc4c(cc(CNC5(C)CCC5)cc4C(F)(F)F)C3=O)c2)C[C@H](O)C1 [Compound 21, 2-(3-((1s,3s)-3-hydroxy-1-(4-methyl-4H-1,2,4-triazol-3-yl)cyclobutyl)phenyl)-6-(((1-methylcyclobutyl)amino)methyl)-4-(trifluoromethyl)isoindolin-1-one] | 5.3 | 4.1 | 22 | 41 | 18 | (2.3x) | – | –
Cn1cnnc1[C@]1(c2cccc(N3Cc4c(cc(CNC5(C)CCC5)cc4C(F)(F)F)C3=O)c2)C[C@H](C#N)C1 [Compound 25, (1s,3s)-3-(4-methyl-4H-1,2,4-triazol-3-yl)-3-(3-(6-(((1-methylcyclobutyl)amino)methyl)-1-oxo-4-(trifluoromethyl)isoindolin-2-yl)phenyl)cyclobutanecarbonitrile] | 5.4 | 4 | 22 | 36 | 14 | (2.6x) | – | –
Cn1cnnc1[C@]1(c2cccc(N3Cc4c(cc(CNC5(C)CCC5)cc4C(F)(F)F)C3=O)c2)C[C@](C)(O)C1 [Compound 26, 2-(3-((1s,3s)-3-hydroxy-3-methyl-1-(4-methyl-4H-1,2,4-triazol-3-yl)cyclobutyl)phenyl)-6-(((1-methylcyclobutyl)amino)methyl)-4-(trifluoromethyl)isoindolin-1-one] | 9.0 | 10 | 90 | 99 | 30 | (3.3x) | – | –
Cn1cnnc1[C@]1(c2cccc(N3Cc4c(cc(CNC5(C)CCC5)cc4C(F)(F)F)C3=O)c2)C[C@@](C)(O)C1 [Compound 27, 2-(3-((1r,3r)-3-hydroxy-3-methyl-1-(4-methyl-4H-1,2,4-triazol-3-yl)cyclobutyl)phenyl)-6-(((1-methylcyclobutyl)amino)methyl)-4-(trifluoromethyl)isoindolin-1-one] | 7.2 | 60 | 430 | 510 | 170 | (3.0x) | – | –
Cn1cnnc1[C@]1(c2cccc(N3Cc4c(cc(CNC5(C)CCC5)cc4C(F)(F)F)C3=O)c2)C[C@](C)(F)C1 [Compound 30, 2-(3-((1s,3s)-3-fluoro-3-methyl-1-(4-methyl-4H-1,2,4-triazol-3-yl)cyclobutyl)phenyl)-6-(((1-methylcyclobutyl)amino)methyl)-4-(trifluoromethyl)isoindolin-1-one] | 3.8 | 2.6 | 9.8 | 27 | 17 | (1.6x) | – | –

These reach a lower Kd [1]. Values come first.

Fold of selectivity [1] [×] | Kd [1] [nM] | Kd (c-Cbl (residues 47-435)) [nM] | IC50 (c-Cbl) [nM] | IC50 (Cbl-b) [nM] | fold-selectivity (Cbl-b over C-cbl) (Cbl-b; [2]) | IC50 (Cbl-b; Example 121) [nM] | (fold-selectivity) Cbl-b and C-Cbl Selectivity (Cbl-b; [2]) [x] | Compound
2.6 | 0.85 | 2.2 | 4.9 | – | – | 4.8 | 1.0 | Cn1cnnc1C(F)(c1cccc(N2Cc3c(cc(CNC4(C)CCC4)cc3C(F)(F)F)C2=O)c1)C1(F)COC1 (stereo in doubt) [Compound 404, (R)-2-(3-(fluoro(3-fluorooxetan-3-yl)(4-methyl-4H-1,2,4-triazol-3-yl)methyl)phenyl)-6-(((1-methylcyclobutyl)amino)methyl)-4-(trifluoromethyl)isoindolin-1-one]
4.4 | 1.3 | 5.7 | 25 | 27 | (0.93x) | – | – | CCNc1cc(C2(c3nncn3C)CC3(COC3)C2)cc(N2Cc3c(cc(CNC4(C)CCC4)cc3C(F)(F)F)C2=O)n1 [Compound 7, 2-(6-(ethylamino)-4-(6-(4-methyl-4H-1,2,4-triazol-3-yl)-2-oxaspiro[3.3]heptan-6-yl)pyridin-2-yl)-6-(((1-methylcyclobutyl)amino)methyl)-4-(trifluoro-methyl)isoindolin-1-one]
1.3 | 0.25 | 0.34 | 5.2 | 6.9 | (0.75x) | – | – | Cn1cnnc1C1(c2cc(C3CC3)nc(N3Cc4c(cc(CNC5(C)CCC5)cc4C(F)(F)F)C3=O)c2)CC(F)(F)C1 [Compound 16, 2-(6-cyclopropyl-4-(3,3-difluoro-1-(4-methyl-4H-1,2,4-triazol-3-yl)cyclobutyl)pyridin-2-yl)-6-(((1-methylcyclobutyl)amino)methyl)-4-(trifluoromethyl)isoindolin-1-one]
3.2 | 0.37 | 1.1 | 5.1 | 5.5 | (0.93x) | – | – | CCNc1cc(C2(c3nncn3C)CC(F)(F)C2)cc(N2Cc3c(cc(CNC4(C)CCC4)cc3C(F)(F)F)C2=O)n1 [Compound 17, 2-(4-(3,3-difluoro-1-(4-methyl-4H-1,2,4-triazol-3-yl)cyclobutyl)-6-(ethylamino)pyridin-2-yl)-6-(((1-methylcyclobutyl)amino)methyl)-4-(trifluoromethyl)isoindolin-1-one]
3.7 | 1.5 | 5.6 | 7.7 | 7.9 | (0.97x) | – | – | C=C1CC(c2cccc(N3Cc4c(cc(CNC5(C)CCC5)cc4C(F)(F)F)C3=O)c2)(c2nncn2C)C1 [Compound 18, 2-(3-(1-(4-methyl-4H-1,2,4-triazol-3-yl)-3-methylenecyclobutyl)phenyl)-6-(((1-methylcyclobutyl)amino)methyl)-4-(trifluoromethyl)-isoindolin-1-one]
8.4 | 1.7 | 15 | 23 | 13 | (1.8x) | – | – | Cn1cnnc1[C@]1(c2cccc(N3Cc4c(cc(CNC5(C)CCC5)cc4C(F)(F)F)C3=O)c2)C[C@@H](C#N)C1 [Compound 24, (1r,3r)-3-(4-methyl-4H-1,2,4-triazol-3-yl)-3-(3-(6-(((1-methylcyclobutyl)amino)methyl)-1-oxo-4-(trifluoromethyl)isoindolin-2-yl)phenyl)cyclobutanecarbonitrile]
5.5 | 2.5 | 13 | 35 | 13 | (2.7x) | – | – | CO[C@]1(C)C[C@@](c2cccc(N3Cc4c(cc(CNC5(C)CCC5)cc4C(F)(F)F)C3=O)c2)(c2nncn2C)C1 [Compound 28, 2-(3-((1r,3r)-3-methoxy-3-methyl-1-(4-methyl-4H-1,2,4-triazol-3-yl)cyclobutyl)phenyl)-6-(((1-methylcyclobutyl)amino)methyl)-4-(trifluoromethyl)isoindolin-1-one]
